{"source": "patent US20250032443A1", "about": "“TREATMENT OF MYOTONIC DISORDERS” (University of Rochester, priority 2021, published 2025)", "key": {"[1]": {"tested_on": "Cav1.1^Δe29/ClC-1^−/− mice", "test": "Body weight measurements in Cav1.1^Δe29/ClC-1^−/− mice", "type": "in vivo, mouse", "experimental": "Mice were provided food cups immediately after weaning, and food was changed daily. No other food source was given, but water was provided and changed weekly along with cages.\nBody weight of the mice was measured every other day following weaning to the end of terminal experimentation. For statistical analysis, two-way ANOVA was performed on the average of each week's measurements. Percent body weight change at 10 weeks was determined with the first weight measurement taken post-weaning, and the body weight reached at 10 weeks."}, "[2]": {"tested_on": "EDL muscle of Cav1.1^Δe29/ClC-1^−/− mice", "test": "In vitro muscle contraction of EDL isolated from long-term orally treated mice (no drug in bath)", "type": "in vivo, mouse", "settings": "20-weeks-of-age, amlodipine treatment"}, "[3]": {"tested_on": "diaphragm strip of Cav1.1^Δe29/ClC-1^−/− mice", "test": "In vitro muscle contraction of diaphragm strips isolated from long-term orally treated mice (no drug in bath)", "type": "in vivo, mouse"}, "[4]": {"tested_on": "Cav1.1^Δe29/ClC-1^−/− mice", "test": "Whole body plethysmography in Cav1.1^Δe29/ClC-1^−/− mice", "type": "in vivo, mouse", "experimental": "Whole body plethysmography (Buxco® Small Animal Whole Body Plethysmography, Data Science Internation) was used to measure respiratory function at 10 weeks (all groups) and 20 weeks (excluding untreated Cav1.1^Δe29/ClC-1^−/−). Mice were acclimated to the system for two days, with data being collected on day three. […] Average data from the 10-minute acquisition period for frequency (Breath/min) and tidal volume (mL) were analyzed for statistics by one-way ANOVA with multiple comparisons."}, "myotonic WT EDL": {"tested_on": "myotonic WT EDL", "test": "Myotonia, ex vivo EDL incubated with 9-AC", "set-up": "species or system mouse"}, "[5]": {"tested_on": "WT and Cav1.1^Δe29 EDLs (no 9AC)", "test": "Myotonia protocol, ex vivo EDL without 9-AC", "set-up": "species or system mouse", "settings": "10 mM amlodipine in the bath"}, "myotonic Cav1.1^Δe29 EDL": {"tested_on": "myotonic Cav1.1^Δe29 EDL", "test": "Myotonia, ex vivo EDL incubated with 9-AC", "set-up": "species or system mouse"}, "[6]": {"tested_on": "Cav1.1^Δe29/ClC-1^−/− mice", "test": "Time of righting reflex in Cav1.1^Δe29/ClC-1^−/− mice", "type": "in vivo, mouse", "experimental": "Mice were held in a supine position on a level surface and then released. Two persons began timing immediately after release, and timing was stopped once all four paws were down on the surface. This was repeated for a total of 10 timed righting responses with a minimum of five minutes in between each recording to avoid myotonic warm-up. Recordings less than a second were recorded as “1,” and righting was considered a failure if righting took more than 60 seconds. If failure was reached, no further recordings were measured for that mouse for that week. The two longest and two shortest recording for each mouse was removed, and the average of the middle 6 recordings were used for analysis. Two-way ANOVA on the week-to-week results and one-way ANOAV with multiple comparisons for the timepoint data (10-week and 20-week) were performed."}, "[7]": {"tested_on": "Cav1.1^Δe29+9-AC EDL muscle", "test": "Transient weakness, ex vivo EDL made myotonic with 9-AC", "set-up": "initial force generation drop: dose or concentration left out as unconfirmed", "settings": "for transient weakness: 20-wk mice"}, "WT+9-AC EDL muscle": {"tested_on": "WT+9-AC EDL muscle", "test": "Transient weakness, ex vivo EDL made myotonic with 9-AC", "settings": "in bath, 20-wk mice"}, "[8]": {"tested_on": "non-myotonic and myotonic WT and Cav1.1^Δe29 mouse muscle", "test": "Peak contraction force of non-myotonic and myotonic ex vivo EDL, drug in bath", "settings": "5 mM and 20 mM verapamil in bath, with or without 100 mM 9-AC; 20-wk mice"}, "[9]": {"settings": "5 mg/kg/day amlodipine vs untreated"}, "[10]": {"settings": "20-weeks of age, amlodipine treated vs WT"}}, "data": [{"smiles": "CCOC(=O)C1=C(COCCN)NC(C)=C(C(=O)OC)C1c1ccccc1Cl", "note": "(racemic) [amlodipine, (RS)-3-ethyl 5-methyl 2-[(2-aminoethoxy)methyl]-4-(2-chlorophenyl)-6-methyl-1,4-dihydropyridine-3,5-dicarboxylate]", "values": [{"measurement": "percent body weight change compared to WT", "setting": "[1]; 5 mg/kg/day amlodipine vs WT", "value": "not significantly different"}, {"measurement": "percent body weight change from weaning at 10 weeks", "setting": "[1]; [9]", "value": "significant improvement"}, {"measurement": "muscle function and muscle force generation in EDL", "setting": "[2]", "value": "not a significant impact"}, {"measurement": "muscle function and muscle force generation in diaphragm", "setting": "[3]; 20-weeks-of-age, amlodipine treatment", "value": "not a significant impact"}, {"measurement": "diaphragm force reduction at 150 Hz and in frequency dependence protocol, compared to ClC-1^−/− alone mice", "setting": "[3]; 20-wk, amlodipine treated", "value": "comparable"}, {"measurement": "diaphragm strip force generation compared to WT diaphragm", "setting": "[3]; 20-wk, amlodipine treated vs WT", "value": "force generation reduction"}, {"measurement": "minute ventilation", "setting": "[4]; 10-week, amlodipine treated vs untreated", "value": "not improved"}, {"measurement": "frequency of respiration", "setting": "[4]; 10-weeks, 5 mg/kg/day amlodipine", "value": "reduction in the frequency"}, {"measurement": "frequency of respiration compared to WT", "setting": "[4]; [10]", "value": "not significantly different"}, {"measurement": "minute ventilation compared to WT", "setting": "[4]; [10]", "value": "significant reduction"}, {"measurement": "respiratory function overall", "setting": "[4]; amlodipine treatment", "value": "moderately impacted"}, {"measurement": "myotonia", "setting": "myotonic WT EDL; 10 mM amlodipine", "value": "reduced myotonia"}, {"measurement": "myotonia (integration normalized to specific force) without 9AC", "setting": "[5]", "value": "has no affect"}, {"measurement": "myotonia", "setting": "myotonic Cav1.1^Δe29 EDL; 10 mM amlodipine", "value": "reduction in the myotonia"}, {"measurement": "myotonia, difference between WT and Cav1.1^Δe29, first tetanus", "setting": "myotonic Cav1.1^Δe29 EDL; 10 mM amlodipine", "value": "significant difference"}, {"measurement": "myotonia, difference between WT and Cav1.1^Δe29, following tetani", "setting": "myotonic Cav1.1^Δe29 EDL; 10 mM amlodipine, 100 mM 9-AC", "value": "no difference"}, {"measurement": "time of righting reflex, week-to-week, compared to ClC-1^−/− alone mice", "setting": "[6]; 5 mg/kg/day amlodipine", "value": "no significant difference in righting"}, {"measurement": "average time of righting reflex compared to WT mice", "setting": "[6]; 5 mg/kg/day amlodipine vs WT", "value": "not a significant difference in time of righting"}, {"measurement": "average time of righting reflex at 10- and 20-week of age", "setting": "[6]; [9]", "value": "significantly improve time of righting"}, {"measurement": "time of righting reflex, weekly", "setting": "[6]; [9]", "value": "significantly improves time of righting"}, {"measurement": "initial force generation drop", "setting": "[7]; 10 mm amlodipine in the bath", "value": "improved"}, {"measurement": "transient weakness", "setting": "[7]; 10 mm amlodipine in the bath", "value": "improvement to transient weakness"}]}, {"smiles": "COc1ccc(CCN(C)CCCC(C#N)(c2ccc(OC)c(OC)c2)C(C)C)cc1OC", "note": "(racemic) [verapamil, (RS)-2-(3,4-Dimethoxyphenyl)-5-{[2-(3,4-dimethoxyphenyl)ethyl]-(methyl)amino}-2-prop-2-ylpentanenitrile]", "values": [{"measurement": "transient weakness", "setting": "[7]; 5 mM verapamil, in bath", "value": "improve transient weakness"}, {"measurement": "transient weakness", "setting": "[7]; 20 um verapamil, in bath", "value": "significant and robust"}, {"measurement": "transient weakness", "setting": "WT+9-AC EDL muscle; 5 mM verapamil", "value": "improve transient weakness"}, {"measurement": "transient weakness", "setting": "WT+9-AC EDL muscle; 20 mM verapamil", "value": "improve transient weakness"}, {"measurement": "peak contraction force", "setting": "[8]", "value": "does not reduce peak contraction force"}]}, {"smiles": "COC(=O)C1=C(C)NC(C)=C(C(=O)OC)C1c1ccccc1[N+](=O)[O-]", "note": "[nifedipine, 3,5-dimethyl 2,6-dimethyl-4-(2-nitrophenyl)-1,4-dihydropyridine-3,5-dicarboxylate]", "values": [{"measurement": "myotonia", "setting": "myotonic WT EDL; 75 nM nifedipine", "value": "reduced myotonia"}, {"measurement": "myotonia", "setting": "myotonic Cav1.1^Δe29 EDL; 75 nM nifedipine", "value": "reduction in the myotonia"}, {"measurement": "initial drop in force generation between the first and second tetani", "setting": "[7]; 10 mM nifedipine", "value": "improved"}, {"measurement": "transient weakness", "setting": "[7]; 10 mM nifedipine in the bath", "value": "significant improvement in transient weakness"}]}]}
